Patent publication US20080293699A1, “Inhibitors of thapsigargin-induced cell death” (priority 2007, published 2008)
“Also recorded” adds a separate entry of the source.

System: ASK1 (ser 967, ser 83, thr 845)
Experiment: Phosphorylation of ASK1 sites in ASK1-transfected 293T cells (immunoblotting)
Type: cell-based
Details: for Phosphorylation of ASK1 at ser 83 and thr 845 / Phosphorylation of ASK1 at ser 967: ASK1-transfected 293T; for Phosphorylation of ASK1 at ser 83 and thr 845: up to 100 μM; for Phosphorylation of ASK1 at ser 967: 100 μM compound, two hours
Description: Phosphorylation of ASK1 at various sites was inspected. 293T cells were transfected with pcDNA-ASK1-HA. One day later, cells were incubated with DMSO (0.4%) or 100 μM compound 6239507 (#1) for two hours. Cell extracts were prepared using lysis buffer and were subjected to immunoblotting using anti-phospho ASK1 antibodies or anti HA antibody as indicated (A). The relative density of each phosphorylated ASK band was calculated by imageJ software (B). In (C), compounds from (A) were compared in activity against thapsigargin-induced cell death. […] (D) 293T cells were transfected with pcDNA-ASK1-HA and pEBG-GST-14-3-3. One day later cells were incubated with DMSO (0.4%) or 100 μM of the indicated compound for two hours. Then cells were treated with thapsigargin (20 μM) for the indicated time. Cell extracts were prepared using lysis buffer, and 14-3-3 proteins were immunoprecipitated with […] sepharose beads. ASK1 protein binding with 14-3-3 was visualized by immunoblotting using anti-HA antibody. Anti-phospho ASK1 (ser967) antibody was used to detect phosphorylation of ASK1 at each time point.
Thus, while not directly inhibiting ASK1 kinase activity, these events are predicted to reduce ASK1 in vivo kinase activity. It is possible that compound 5962123 inhibits a protein phosphatase that regulates phosphorylation of Ser967.
Suppression of thapsigargin-induced phosphorylation of p38MAPK was also measured by a quantitative ELISA-methods, with IC50 for p38MAPK phosphorylation estimated at <5 μM. In contrast, thapsigargin-induced expression of CHOP, expression of ATF4, proteolytic processing of ATF6, phosphorylation of eIF2a (Ser 51), auto-phosphorylation of Ire1a or auto-phosphorylation of ASK1 were not inhibited directly by CID-2878746 at concentrations up to 50 μM tested by in vitro kinase assay using p32-γ-ATP substrate. […] Thapsigargin-induced reductions in phosphorylation of ASK1 at the serine 967 site in ASK1 transfected 293T cells are inhibited by compound 5962123 at concentrations of 50-100 μM, as determined by immunoblotting using anti-phospho-specific (ser 967) antibody, but thapsigargin-induced changes in phosphorylation of ASK1 at ser 83 and thr 845 are not modulated by compound 5962123 at concentrations as high as 100 μM in ASK1-transfected HEK293T cells.
Experiments were also performed to determine whether compound 6239507 enhances phosphorylation of ASK1 at Ser 967 before and after ER stress induction (i.e., thapsigargin treatment). 293T cells were transfected with pcDNA-ASK1-HA. One day later, cells were incubated with DMSO (0.4%) or 100 μM compound 6239507 (#1) for two hours. Then cells were treated with thapsigargin (20 μM) for the indicated times. Cell extracts were prepared by lysis buffer and were subjected to immunoblotting with anti-phospho ASK1 Ser967 antibody or anti HA antibody. The relative density of phosphor ser967 bands were calculated by imageJ software (mean ±SD).
The ser 967 site of ASK1 is known to down-regulate ASK1 activity by phosphorylation (Goldman et al., J. Biol. Chem. 279:10442-10449, 2004) via 14-3-3 binding. […] 293T cells were transfected with pcDNA-ASK1-HA. One day later, cells were incubated with DMSO (0.4%) or 100 μM compound 6239507 (#1) for two hours. Cell extracts were prepared using lysis buffer and were subjected to immunoblotting using anti-phospho ASK1 antibodies or anti HA antibody as indicated. The relative density of each phosphorylated ASK band was calculated by imageJ software. The compounds were compared in activity against thapsigargin-induced cell death. 293T cells were transfected with pcDNA-ASK1-HA and pEBG-GST-14-3-3. One day later cells were incubated with DMSO (0.4%) or 100 μM of the indicated compound for two hours. Then cells were treated with thapsigargin (20 μM) for the indicated time. Cell extracts were prepared using lysis buffer, and 14-3-3 proteins were immunoprecipitated with […] sepharose beads. […]

SMILES	Phosphorylation of ASK1 at ser 83 and thr 845	Thapsigargin-stimulated dephosphorylation of ASK1 at serine 967 (ASK1-transfected HEK293T, 50 μM, 50-100 μM)	Phosphorylation of ASK1 at ser 967	Phosphorylation of ASK1 at ser 967 (listed as 1)
CCN(CC)c1ccc(C2Nc3ccccc3NC3=C2C(=O)CC(c2ccccc2)C3)cc1 (stereo not shown) [Compound 5962123, 6-(4-diethylaminophenyl)-9-phenyl-5,6,8,9,10,11-hexahydrobenzo[c][1,5]benzodiazepin-7-one]	not modulated	inhibited	–	–
COc1ccc(C2CC(=O)C3=C(C2)Nc2ccccc2NC3c2ccccc2C(F)(F)F)cc1OC (stereo not shown) [Compound 6237735]	not ser 83 or thr 845	–	enhanced phosphorylation of ser 967 only	–
COc1ccc(C2CC(=O)C3=C(C2)Nc2ccccc2NC3c2cccc(Oc3ccccc3)c2)cc1OC (stereo not shown) [Compound 6239507]	not ser 83 or thr 845	–	enhance phosphorylation; also recorded: intensified	enhanced phosphorylation of ser 967 only
